Values quoted from earlier work as cited in patent US20180207149A1, “METHODS AND COMPOSITIONS FOR ENHANCING IMMUNE RESPONSE TO VACCINATION” (priority 2015, published 2018).

Tested on: immunizing influenza vaccine strains
Details: elderly subjects with chronic illness; topical, before intradermal trivalent influenza vaccine

CC(C)Cn1cnc2c(N)nc3ccccc3c21 [imiquimod]
immunogenicity against the immunizing influenza vaccine strains: expedited, augmented and prolonged the immunogenicity
